Columns and labels:
[1] = biological target: recombinant human GCN2 protein (Homo sapiens, UniProt Q9P2K8); test: General control nonderepressible 2 (GCN2) inhibitory capacity, 33P-ATP filter assay; type: biochemical; conditions: recombinant human GCN2, 70 uM [gamma-33P-ATP], 40 minutes, room temperature
Description: <Experimental Example 2> Evaluation of General Control Nonderepressible 2 (GCN2) Inhibitory Capacity
(§1) A recombinant human GCN2 protein was mixed with the compound in a reaction solution (20 mM Tris/HCl pH8.5, 0.2 mM EDTA, 0.1% Tween, 100 mM NaCl, 300 μM RSRSRSRSRSRSRSR, 10 mM Magnesium acetate, 70 uM [gamma-33P-ATP]) and reacted at room temperature for 40 minutes. Then, the reaction was terminated by adding phosphoric acid (0.5%) to the reaction mixture, and 10 ul of the reaction solution was dropped onto a P30 filter. The filter was washed four times in a 0.425% phosphoric acid solution for 4 minutes, then washed once more in methanol, dried, and the GCN2 activity was measured by scintillation counting. […] The compound was diluted by 1/3 from the highest concentration of 1 uM and treated with a total of 9 concentrations to evaluate the degree of inhibition.

[2] = biological target: T1, phosphorylated GCN2 (Homo sapiens, UniProt Q9P2K8); test: Inhibition of phosphorylated GCN2 under amino acid deficiency in HT-1080 cells, Western blot; type: cell-based; conditions: compound 50 nM, 24 hours; for Phospho-GCN2 inhibition: symbols ◯ / X not defined
T1 construct: endogenous in cells; host or cells: HT-1080
T1 sequence (Q9P2K8 whole entry): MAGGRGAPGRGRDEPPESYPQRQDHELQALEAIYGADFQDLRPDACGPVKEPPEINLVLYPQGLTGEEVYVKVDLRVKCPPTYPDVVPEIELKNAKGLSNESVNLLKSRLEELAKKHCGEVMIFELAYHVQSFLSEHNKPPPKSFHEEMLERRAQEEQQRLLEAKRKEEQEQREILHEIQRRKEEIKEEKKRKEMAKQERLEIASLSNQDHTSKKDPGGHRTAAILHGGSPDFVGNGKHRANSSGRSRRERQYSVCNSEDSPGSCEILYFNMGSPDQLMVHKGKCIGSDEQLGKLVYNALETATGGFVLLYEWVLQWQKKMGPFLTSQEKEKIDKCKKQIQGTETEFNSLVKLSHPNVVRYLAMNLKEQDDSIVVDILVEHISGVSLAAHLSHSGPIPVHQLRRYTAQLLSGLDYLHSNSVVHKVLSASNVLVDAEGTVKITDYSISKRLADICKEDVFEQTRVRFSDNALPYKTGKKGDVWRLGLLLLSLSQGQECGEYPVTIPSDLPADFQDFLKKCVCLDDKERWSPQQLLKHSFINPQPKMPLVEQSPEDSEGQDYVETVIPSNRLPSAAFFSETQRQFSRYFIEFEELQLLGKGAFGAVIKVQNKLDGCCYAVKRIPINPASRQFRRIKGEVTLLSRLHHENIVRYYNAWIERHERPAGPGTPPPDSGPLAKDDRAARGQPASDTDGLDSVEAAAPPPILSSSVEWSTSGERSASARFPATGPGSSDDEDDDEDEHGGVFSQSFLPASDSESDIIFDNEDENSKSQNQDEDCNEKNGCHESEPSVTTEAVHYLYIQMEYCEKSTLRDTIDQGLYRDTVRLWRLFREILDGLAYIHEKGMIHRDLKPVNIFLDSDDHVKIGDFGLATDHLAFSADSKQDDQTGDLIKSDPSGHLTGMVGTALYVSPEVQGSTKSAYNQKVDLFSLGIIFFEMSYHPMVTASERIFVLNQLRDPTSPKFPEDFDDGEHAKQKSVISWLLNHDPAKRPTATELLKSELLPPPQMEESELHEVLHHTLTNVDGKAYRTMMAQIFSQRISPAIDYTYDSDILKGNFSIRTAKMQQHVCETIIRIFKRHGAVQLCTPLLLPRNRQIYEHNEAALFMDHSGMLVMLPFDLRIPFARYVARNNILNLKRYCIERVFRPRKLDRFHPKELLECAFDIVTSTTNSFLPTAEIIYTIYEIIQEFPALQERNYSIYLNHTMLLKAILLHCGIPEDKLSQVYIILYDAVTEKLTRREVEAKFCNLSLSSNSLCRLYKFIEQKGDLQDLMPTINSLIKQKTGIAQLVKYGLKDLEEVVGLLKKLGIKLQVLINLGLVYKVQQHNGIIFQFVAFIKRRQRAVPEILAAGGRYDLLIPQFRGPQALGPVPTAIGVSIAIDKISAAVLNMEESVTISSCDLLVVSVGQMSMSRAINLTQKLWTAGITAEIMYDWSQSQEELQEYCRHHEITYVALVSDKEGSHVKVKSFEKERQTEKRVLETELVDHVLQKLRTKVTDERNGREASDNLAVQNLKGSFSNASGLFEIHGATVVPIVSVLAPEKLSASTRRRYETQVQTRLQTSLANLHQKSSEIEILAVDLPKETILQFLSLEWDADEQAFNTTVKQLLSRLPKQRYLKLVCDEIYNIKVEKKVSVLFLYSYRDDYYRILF
Description: <Experimental Example 5> Evaluation of Inhibitory Efficacy of ISR-Related Kinase GCN2 Under Amino Acid Deficiency Condition Using Western Blot
HT-1080 cells, a human fibrosarcoma cell line, were cultured in RPMI-1640 medium supplemented with 10% FBS, penicillin (penicillin; 100 IU/ml), and streptomycin (streptomycin; 100 μg/ml). Cells (1×10^6 cells/ml) were seeded onto 100 mm plates (polypropylene tissue culture plate) and incubated for 24 hours in a 37° C., 5% CO2 incubator before being used for experiments.
The following method was used to achieve amino acid deficiency conditions in cells. After 24 hours of cell culture, the cells were cultured in amino acids and L-glutamine-free RPMI-1640 medium supplemented with 10% FBS, penicillin (100 IU/ml), and streptomycin (100 μg/ml). After 24 hours of cell culture in RPMI-1640 without amino acids and L-glutamine, the compound prepared at a concentration of 50 nM was dispensed onto each plate and cultured for 24 hours in a 37° C., 5% CO2 incubator.
In order to measure the signal transduction inhibitory efficacy of GCN among the ISR-related kinases according to the present invention, the following experiment was performed using SDS-PAGE. The fibrosarcoma cell line HT-1080 cells cultured on plates as described above were washed with PBS after removing the culture medium. After removing PBS, the cells were lysed by adding a radio-immunoprecipitation assay buffer (RIPA buffer) containing 50 mM Tris (pH 7.4), 150 mM NaCl, 1% NP-40, 0.5% sodium deoxycholate, 2 mM sodium fluoride, 2 mM EDTA, 0.1% SDS, and a protease/phosphatase inhibitor cocktail to the plate. After centrifugation at 4° C., 13,000×g for 15 minutes, the protein in the upper layer was collected, and the protein concentration was measured at 562 nm using BCA (bicinchoninc acid) reagent, and the amount of protein in all samples was prepared at 20-50 μg.
After making the total volume the same using the sample buffer and RIPA buffer, it was heated at 97° C. for 5 minutes. Then, electrophoresis was performed on 8% or 12% SDS-PAGE at 80 V for 30 minutes and at 160 V for 1 hour and 30 minutes. After electrophoresis, the SDS-PAGE gel was transferred to an NC membrane (nitrocellulose membrane) at 90 V for 2 hours. The NC membrane was placed in TBST (tris buffer saline tween-20; 20 mM tris, 137 mM sodium chloride, 0.1% tween-20, pH 8.0) containing 5% non-fat skim milk, placed on a shaker, and reacted at room temperature for 1 hour.
Each primary antibody was diluted in TBST containing 5% non-fat skim milk, poured onto the NC membrane, and reacted at 4° C. for 24 hours. The membrane was washed three times for 10 minutes each with TBST. The secondary antibodies (anti-rabbit IgG and anti-mouse IgG labeled with horseradish peroxidase (HRP)) were diluted in TBST containing 5% non-fat skim milk and reacted with the membrane at room temperature for 1 hour. Upon completion of the reaction, the membrane was washed three times with TBST for 10 minutes each. Protein expression bands were detected by a chemiluminescence image analyzer (Image Quant LAS 500) after the ECL solution was reacted with the NC membrane.
GCN2, a key kinase of the integrated stress response (ISR), is phosphorylated in response to amino acid deficiency.

[3] = biological target: T2, recombinant human PERK protein (Homo sapiens, UniProt Q9NZJ5); test: PKR-like endoplasmic reticulum kinase (PERK) inhibitory capacity, 33P-ATP filter assay; type: biochemical; conditions: 15 uM [gamma-33P-ATP], 40 minutes, room temperature
T2 sequence (Q9NZJ5 30-1116): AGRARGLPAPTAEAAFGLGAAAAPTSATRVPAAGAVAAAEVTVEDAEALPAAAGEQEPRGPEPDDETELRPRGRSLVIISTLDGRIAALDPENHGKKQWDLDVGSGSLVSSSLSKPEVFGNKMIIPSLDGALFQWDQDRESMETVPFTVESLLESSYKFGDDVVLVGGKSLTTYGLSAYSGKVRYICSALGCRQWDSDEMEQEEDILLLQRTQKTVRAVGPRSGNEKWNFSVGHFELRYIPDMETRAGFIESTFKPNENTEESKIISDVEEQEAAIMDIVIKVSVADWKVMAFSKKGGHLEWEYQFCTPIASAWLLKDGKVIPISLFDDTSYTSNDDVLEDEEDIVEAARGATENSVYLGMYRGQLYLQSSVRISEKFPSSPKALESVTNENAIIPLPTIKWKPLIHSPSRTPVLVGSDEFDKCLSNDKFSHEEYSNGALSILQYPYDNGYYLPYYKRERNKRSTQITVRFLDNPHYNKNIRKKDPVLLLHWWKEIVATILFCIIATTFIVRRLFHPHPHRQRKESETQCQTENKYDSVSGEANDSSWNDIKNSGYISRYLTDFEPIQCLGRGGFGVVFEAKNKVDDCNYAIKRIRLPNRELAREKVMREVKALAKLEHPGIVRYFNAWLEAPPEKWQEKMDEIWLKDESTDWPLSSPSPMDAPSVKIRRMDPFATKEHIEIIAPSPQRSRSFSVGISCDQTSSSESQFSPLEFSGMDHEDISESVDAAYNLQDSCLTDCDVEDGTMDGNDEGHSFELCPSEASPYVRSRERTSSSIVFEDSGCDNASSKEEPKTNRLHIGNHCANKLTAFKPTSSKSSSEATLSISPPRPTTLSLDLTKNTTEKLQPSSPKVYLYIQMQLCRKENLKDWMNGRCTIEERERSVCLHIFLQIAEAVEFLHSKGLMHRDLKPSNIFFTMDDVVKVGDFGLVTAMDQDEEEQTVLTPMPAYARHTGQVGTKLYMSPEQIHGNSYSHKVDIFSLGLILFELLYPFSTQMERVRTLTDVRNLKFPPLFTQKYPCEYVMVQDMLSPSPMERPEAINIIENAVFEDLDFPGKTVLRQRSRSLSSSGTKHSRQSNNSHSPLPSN
Description: <Experimental Example 1> Evaluation of PKR-Like Endoplasmic Reticulum Kinase (PERK) Inhibitory Capacity
as §1, with “PERK” for “GCN2”, “(8” for “(20”, “MOPS pH 7.0,” for “Tris/HCl pH8.5,”, “EDTA,” for “EDTA, 0.1% Tween, 100 mM NaCl,”, “uM” for “μM”, “15” for “70”

[4] = biological target: recombinant human PKR protein (Homo sapiens, UniProt P19525); test: Protein kinase R (PKR) inhibitory capacity, 33P-ATP filter assay; type: biochemical; conditions: 15 uM [gamma-33P-ATP], 40 minutes, room temperature
Sequence of recombinant human PKR protein (P19525 whole entry): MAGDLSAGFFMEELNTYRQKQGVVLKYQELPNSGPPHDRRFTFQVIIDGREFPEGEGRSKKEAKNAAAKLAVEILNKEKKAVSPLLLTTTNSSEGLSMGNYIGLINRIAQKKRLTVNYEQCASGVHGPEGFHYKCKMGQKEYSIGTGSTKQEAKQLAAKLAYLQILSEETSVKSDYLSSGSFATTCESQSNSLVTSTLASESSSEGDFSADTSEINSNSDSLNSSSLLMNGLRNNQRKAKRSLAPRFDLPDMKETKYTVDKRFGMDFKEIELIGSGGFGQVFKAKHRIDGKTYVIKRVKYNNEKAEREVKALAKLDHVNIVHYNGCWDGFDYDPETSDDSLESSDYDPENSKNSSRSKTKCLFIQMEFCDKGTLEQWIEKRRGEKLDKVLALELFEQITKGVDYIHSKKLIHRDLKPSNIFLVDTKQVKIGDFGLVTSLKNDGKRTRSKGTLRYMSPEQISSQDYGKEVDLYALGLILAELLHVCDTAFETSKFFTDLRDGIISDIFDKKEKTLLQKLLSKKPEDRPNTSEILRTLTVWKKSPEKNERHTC
Description: <Experimental Example 4> Evaluation of Protein Kinase R (PKR) Inhibitory Capacity
as §1, with “PKR” for “GCN2”, “(8” for “(20”, “MOPS pH 7.0,” for “Tris/HCl pH8.5,”, “20 uM” for “0.1% Tween, 100 mM NaCl, 300 μM”, “15” for “70”

[5] = biological target: recombinant human HRI protein (Homo sapiens, UniProt Q9BQI3); test: eIF2-alpha kinase heme-regulated inhibitor (HRI) inhibitory capacity, 33P-ATP filter assay; type: biochemical; conditions: 45 uM [gamma-33P-ATP], 40 minutes, room temperature
Sequence of recombinant human HRI protein (Q9BQI3 whole entry): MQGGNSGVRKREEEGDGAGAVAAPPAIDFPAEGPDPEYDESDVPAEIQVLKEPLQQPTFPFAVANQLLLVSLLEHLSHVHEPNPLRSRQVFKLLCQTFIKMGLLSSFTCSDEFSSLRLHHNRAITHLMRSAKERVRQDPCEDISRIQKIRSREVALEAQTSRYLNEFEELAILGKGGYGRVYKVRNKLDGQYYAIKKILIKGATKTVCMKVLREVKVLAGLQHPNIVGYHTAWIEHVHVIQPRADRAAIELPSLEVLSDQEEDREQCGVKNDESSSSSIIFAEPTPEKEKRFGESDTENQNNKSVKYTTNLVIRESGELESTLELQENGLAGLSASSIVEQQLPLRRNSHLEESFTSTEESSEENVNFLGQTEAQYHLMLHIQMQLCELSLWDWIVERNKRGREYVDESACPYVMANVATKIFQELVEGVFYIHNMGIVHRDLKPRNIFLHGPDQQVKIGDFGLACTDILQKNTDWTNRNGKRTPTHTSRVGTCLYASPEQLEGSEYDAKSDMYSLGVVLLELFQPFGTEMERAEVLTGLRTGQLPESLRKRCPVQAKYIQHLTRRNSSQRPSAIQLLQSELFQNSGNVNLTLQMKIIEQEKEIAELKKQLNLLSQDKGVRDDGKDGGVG
Description: <Experimental Example 3> Evaluation of eIF2-Alpha Kinase Heme-Regulated Inhibitor (HRI) Inhibitory Capacity
A recombinant human HRI protein was mixed with the compound in a reaction solution (50 mM Tris/HCl pH 7.5, 0.04 mM EDTA, 300 uM RSRSRSRSRSRSRSR, 10 mM Magnesium acetate, 45 uM [gamma-33P-ATP]) and reacted at room temperature for 40 minutes. Then, the reaction was terminated by adding phosphoric acid (0.5%) to the reaction mixture, and […] of the reaction solution was dropped onto a P30 filter. The filter was washed four times in a 0.425% phosphoric acid solution for 4 minutes, then […] washed once more in methanol, dried, and the HRI activity was measured by scintillation counting. […] The compound was diluted by 1/3 from the highest concentration of 1 uM and treated with a total of 9 concentrations to evaluate the degree of inhibition.

Sequence of recombinant human GCN2 protein (Q9P2K8 whole entry): as the sequence (Q9P2K8 whole entry) above

IC50 [1] [nM] | inhibitory effect on the phosphorylated GCN2 [2] | Phospho-GCN2 inhibition [2] | IC50 [3] [nM] | IC50 [4] [nM] | IC50 [5] [nM] | SMILES
< 100 | excellent inhibitory effect | ◯ | – | – | – | COc1ncc(Cl)cc1S(=O)(=O)Nc1ccc(F)c(-n2ccc3nc(N)ncc3c2=O)c1F [Example 26, N-(3-(2-amino-5-oxopirido[4,3-d]pyrimidin-6(5H)-yl)-2,4-difluorophenyl)-5-chloro-2-methoxypyridine-3-sulfonamide]
< 100 | – | – | < 100 | > 1000 | 100 to 300 | COc1ncc(C#N)cc1S(=O)(=O)Nc1ccc(F)c(-n2ccc3nc(N)ncc3c2=O)c1F [Example 28, N-(3-(2-amino-5-oxopirido[4,3-d]pyrimidin-6(5H)-yl)-2,4-difluorophenyl)-5-cyano-2-methoxypyridine-3-sulfonamide]
100 to 300 | excellent inhibitory effect | – | – | – | – | Cc1nn(-c2c(F)ccc(NS(=O)(=O)c3c(Cl)nn(C)c3C)c2F)c(=O)c2cnc(N)nc12 [Example 36, N-(3-(2-amino-8-methyl-5-oxopyrimido[4,5-d]pyridazine-6(5H)-yl)-2,4-difluorophenyl)-3-chloro-1,5-dimethyl-1H-pyrazole-4-sulfonamide]
100 to 300 | – | ◯ | – | – | – | COc1ncc(Cl)cc1S(=O)(=O)Nc1ccc(F)c(-n2nc(C)c3nc(N)ncc3c2=O)c1F [Example 38, N-(3-(2-amino-8-methyl-5-oxopyrimido[4,5-d]pyridazine-6(5H)-yl)-2,4-difluorophenyl)-5-chloro-2-methoxypyridine-3-sulfonamide]
100 to 300 | – | ◯ | – | – | – | Cc1nn(C)c(C)c1S(=O)(=O)Nc1ccc(F)c(-n2c(=O)c3cnc(N)nc3n(C)c2=O)c1F [Example 48, N-(3-(7-amino-1-methyl-2,4-dioxo-1,4-dihydropyrimido[4,5-d]pyrimidin-3(2H)-yl)-2,4-difluorophenyl)-1,3,5-trimethyl-1H-pyrazole-4-sulfonamide]
300 to 1000 | excellent inhibitory effect | ◯ | – | – | – | Nc1ncc2c(=O)n(-c3c(F)ccc(NS(=O)(=O)c4cc(Cl)ccc4Cl)c3F)c(=O)n(C3CC3)c2n1 [Example 63, N-(3-(7-amino-1-cyclopropyl-2,4-dioxo-1,4-dihydropyrimido[4,5-d]pyrimidin-3(2H)-yl)-2,4-difluorophenyl)-2,5-dichlorobenzenesulfonamide]
300 to 1000 | excellent inhibitory effect | ◯ | – | – | – | Nc1ncc2c(=O)n(-c3c(F)ccc(NS(=O)(=O)c4cccc5ccccc45)c3F)c(=O)n(C3CC3)c2n1 [Example 64, N-(3-(7-amino-1-cyclopropyl-2,4-dioxo-1,4-dihydropyrimido[4,5-d]pyrimidin-3(2H)-yl)-2,4-difluorophenyl)naphthalene-1-sulfonamide]
300 to 1000 | excellent inhibitory effect | ◯ | – | – | – | COc1ncc(Cl)cc1S(=O)(=O)Nc1ccc(F)c(-n2c(=O)c3cnc(N)nc3n(C3CC3)c2=O)c1F [Example 65, N-(3-(7-amino-1-cyclopropyl-2,4-dioxo-1,4-dihydropyrimido[4,5-d]pyrimidin-3(2H)-yl)-2,4-difluorophenyl)-5-chloro-2-methoxypyridine-3-sulfonamide]

— patent US20260184706A1, “PHENYLSULFONAMIDE DERIVATIVES, PREPARATION METHOD THEREFOR, AND PHARMACEUTICAL COMPOSITION FOR PREVENTION OR TREATMENT OF CANCER CONTAINING SAME AS ACTIVE INGREDIENT” (Korea Research Institute of Chemical Technology, priority 2022, published 2026)
